Experimental data from PMC5218480 (PLoS ONE, 2017).

Tested on: MV-4-11 cells
Assay: Gene expression microarray analysis (Affymetrix PrimeView) and GSEA
Type: cell-based, human
Set-up: RFU PODN (11730768_x_at) / Fold change /veh PODN (11730768_x_at) / RFU LINC00158 (11744669_a_at) / Fold change /veh LINC00158 (11744669_a_at) / RFU DUSP10 (11751237_a_at) / Fold change /veh DUSP10 (11751237_a_at) / RFU ID3 (11757404_x_at) / Fold change /veh ID3 (11757404_x_at) / RFU PLEKHG5 (11737974_s_at) / Fold change /veh PLEKHG5 (11737974_s_at) / RFU LRRC4B (11730491_at) / Fold change /veh LRRC4B (11730491_at) / RFU GIMAP4 (11747438_a_at) / Fold change /veh GIMAP4 (11747438_a_at) / RFU KRT8 (11758183_x_at) / Fold change /veh KRT8 (11758183_x_at) / RFU CNN1 (11734310_a_at) / Fold change /veh CNN1 (11734310_a_at) / RFU VPS37D (11726825_at) / Fold change /veh VPS37D (11726825_at) / RFU C10orf10 (11716522_x_at) / Fold change /veh C10orf10 (11716522_x_at) / RFU KIR2DL2 /// KIR2DL4 /// KIR2DL5A /// KIR2DL5B /// KIR2DS1 /// KIR2DS2 /// KIR2DS3 /// KIR2DS4 /// KIR3DL3 /// KIR3DL3 /// KIR3DS1 (11738374_at) / Fold change /veh KIR2DL2 /// KIR2DL4 /// KIR2DL5A /// KIR2DL5B /// KIR2DS1 /// KIR2DS2 /// KIR2DS3 /// KIR2DS4 /// KIR3DL3 /// KIR3DL3 /// KIR3DS1 (11738374_at) / RFU C1QL1 (11718748_at) / Fold change /veh C1QL1 (11718748_at) / RFU TMPRSS4 (11747572_a_at) / Fold change /veh TMPRSS4 (11747572_a_at) / RFU HAMP (11756126_x_at) / Fold change /veh HAMP (11756126_x_at) / RFU RNFT2 (11725882_a_at) / Fold change /veh RNFT2 (11725882_a_at) / RFU NR4A2 (11747474_a_at) / Fold change /veh NR4A2 (11747474_a_at) / RFU ABCC12 (11746883_a_at) / Fold change /veh ABCC12 (11746883_a_at) / RFU TMEM136 (11760407_x_at) / Fold change /veh TMEM136 (11760407_x_at) / RFU CLDN22 /// WWC2 (11732394_at) / Fold change /veh CLDN22 /// WWC2 (11732394_at) / RFU HLA-DPB1 (11760878_x_at) / Fold change /veh HLA-DPB1 (11760878_x_at) / RFU SPINT1 (11716480_a_at) / Fold change /veh SPINT1 (11716480_a_at) / RFU GAP43 (11754022_s_at) / Fold change /veh GAP43 (11754022_s_at) / RFU A4GNT (11735810_at) / Fold change /veh A4GNT (11735810_at) / RFU PRB3 (11715151_x_at) / Fold change /veh PRB3 (11715151_x_at) / RFU TUBB4B (11761932_at) / Fold change /veh TUBB4B (11761932_at) / RFU CAPN14 (11732068_a_at) / Fold change /veh CAPN14 (11732068_a_at) / RFU TMCC2 (11721928_a_at) / Fold change /veh TMCC2 (11721928_a_at) / RFU IRGQ (11745062_a_at) / Fold change /veh IRGQ (11745062_a_at) / RFU FAM174B (11720279_a_at) / Fold change /veh FAM174B (11720279_a_at) / RFU TMPRSS4 (11748680_a_at) / Fold change /veh TMPRSS4 (11748680_a_at) / RFU FAM212B (11763350_a_at) / Fold change /veh FAM212B (11763350_a_at) / RFU PLEKHG5 (11743358_a_at) / Fold change /veh PLEKHG5 (11743358_a_at) / RFU ZSCAN30 (11745921_a_at) / Fold change /veh ZSCAN30 (11745921_a_at) / RFU CMKLR1 (11741424_a_at) / Fold change /veh CMKLR1 (11741424_a_at) / RFU LOC101060620 /// MAPK8IP1 (11723275_at) / Fold change /veh LOC101060620 /// MAPK8IP1 (11723275_at) / RFU SPTSSB (11747773_x_at) / Fold change /veh SPTSSB (11747773_x_at) / RFU PRSS12 (11739890_at) / Fold change /veh PRSS12 (11739890_at) / RFU BIN1 (11741810_x_at) / Fold change /veh BIN1 (11741810_x_at) / RFU WNT11 (11732464_a_at) / Fold change /veh WNT11 (11732464_a_at) / RFU C10orf10 (11716521_a_at) / Fold change /veh C10orf10 (11716521_a_at) / RFU C5orf56 (11738089_at) / Fold change /veh C5orf56 (11738089_at) / RFU CYB561 (11721691_x_at) / Fold change /veh CYB561 (11721691_x_at) / RFU ANKRD19P (11752326_a_at) / Fold change /veh ANKRD19P (11752326_a_at) / RFU OR2T12 /// OR2T33 /// OR2T8 (11738714_s_at) / Fold change /veh OR2T12 /// OR2T33 /// OR2T8 (11738714_s_at) / RFU VCAN (11748164_a_at) / Fold change /veh VCAN (11748164_a_at) / RFU JSRP1 (11732532_at) / Fold change /veh JSRP1 (11732532_at) / RFU KRTAP10-11 (11738290_x_at) / Fold change /veh KRTAP10-11 (11738290_x_at) / RFU MYO3A (11730013_a_at) / Fold change /veh MYO3A (11730013_a_at) / RFU EBF3 (11725865_a_at) / Fold change /veh EBF3 (11725865_a_at) / RFU CAMK2N1 (11719241_x_at) / Fold change /veh CAMK2N1 (11719241_x_at) / RFU C5orf56 (11738088_a_at) / Fold change /veh C5orf56 (11738088_a_at) / RFU OLFML3 (11715873_a_at) / Fold change /veh OLFML3 (11715873_a_at) / RFU LOC100653217 /// NTM (11731650_a_at) / Fold change /veh LOC100653217 /// NTM (11731650_a_at) / RFU MAPK11 (11762145_a_at) / Fold change /veh MAPK11 (11762145_a_at) / RFU FIZ1 (11724087_x_at) / Fold change /veh FIZ1 (11724087_x_at) / RFU OASL (11726364_x_at) / Fold change /veh OASL (11726364_x_at) / RFU SOX15 (11748057_x_at) / Fold change /veh SOX15 (11748057_x_at) / RFU CD79A (11719716_a_at) / Fold change /veh CD79A (11719716_a_at) / RFU HIST1H1D (11736915_at) / Fold change /veh HIST1H1D (11736915_at) / RFU CASKIN2 (11723855_a_at) / Fold change /veh CASKIN2 (11723855_a_at) / RFU LOC730098 (11760151_x_at) / Fold change /veh LOC730098 (11760151_x_at) / RFU OR4N2 (11742367_at) / Fold change /veh OR4N2 (11742367_at) / RFU PRRT2 (11749266_a_at) / Fold change /veh PRRT2 (11749266_a_at) / RFU SNX32 (11753110_a_at) / Fold change /veh SNX32 (11753110_a_at) / RFU CDHR5 (11726645_a_at) / Fold change /veh CDHR5 (11726645_a_at) / RFU RCAN1 (11760418_a_at) / Fold change /veh RCAN1 (11760418_a_at) / RFU FAM167A (11723789_a_at) / Fold change /veh FAM167A (11723789_a_at) / RFU FAM26E (11764081_at) / Fold change /veh FAM26E (11764081_at) / RFU ISYNA1 (11749810_s_at) / Fold change /veh ISYNA1 (11749810_s_at) / RFU ACY1 (11761880_at) / Fold change /veh ACY1 (11761880_at) / RFU 11764098_at / Fold change /veh 11764098_at / RFU SAMD14 (11745864_x_at) / Fold change /veh SAMD14 (11745864_x_at) / RFU NPB (11741838_a_at) / Fold change /veh NPB (11741838_a_at) / RFU TMPRSS6 (11731388_a_at) / Fold change /veh TMPRSS6 (11731388_a_at) / RFU KRTAP10-2 (11738614_at) / Fold change /veh KRTAP10-2 (11738614_at) / RFU ARHGAP8 /// PRR5-ARHGAP8 (11727945_x_at) / Fold change /veh ARHGAP8 /// PRR5-ARHGAP8 (11727945_x_at) / RFU KRTAP5-7 /// NADSYN1 (11734609_at) / Fold change /veh KRTAP5-7 /// NADSYN1 (11734609_at) / RFU RASL12 (11751679_a_at) / Fold change /veh RASL12 (11751679_a_at) / RFU CDKN2B (11736163_a_at) / Fold change /veh CDKN2B (11736163_a_at) / RFU PRF1 (11729649_at) / Fold change /veh PRF1 (11729649_at) / RFU, ZNF638 /// ZNF638-IT1 / Fold change vs veh, ZNF638 /// ZNF638-IT1 / RFU, PANK3 / Fold change vs veh, PANK3 / RFU, SH3YL1 / Fold change vs veh, SH3YL1 / RFU, ZEB2 / Fold change vs veh, ZEB2 / RFU, NRIP1 / Fold change vs veh, NRIP1 / RFU, PTTG1IP / Fold change vs veh, PTTG1IP / RFU, CAPN2 / Fold change vs veh, CAPN2 / RFU, MED14 / Fold change vs veh, MED14 / RFU, SNORA58 / Fold change vs veh, SNORA58 / RFU, C1orf63 / Fold change vs veh, C1orf63 / RFU, LRRFIP1 / Fold change vs veh, LRRFIP1 / RFU, NDUFAF7 / Fold change vs veh, NDUFAF7 / RFU, SLC12A2 / Fold change vs veh, SLC12A2 / RFU, IBTK / Fold change vs veh, IBTK / RFU, ESF1 / Fold change vs veh, ESF1 / Fold change vs veh, TMEM50B / RFU, TAOK1 / Fold change vs veh, TAOK1 / RFU, ACBD3 / Fold change vs veh, ACBD3 / RFU, TMA16 / Fold change vs veh, TMA16 / RFU, RWDD3 / Fold change vs veh, RWDD3 / RFU, BCAT1 / Fold change vs veh, BCAT1 / RFU, EDEM3 / Fold change vs veh, EDEM3 / RFU, TMEM33 / Fold change vs veh, TMEM33 / RFU, WDR75 / Fold change vs veh, WDR75 / RFU, AHCTF1 / Fold change vs veh, AHCTF1 / RFU, TFRC / Fold change vs veh, TFRC / RFU, ZDHHC17 / Fold change vs veh, ZDHHC17 / RFU, NOM1 / Fold change vs veh, NOM1 / RFU, ARL8B / Fold change vs veh, ARL8B / RFU, ZBTB11 / Fold change vs veh, ZBTB11 / RFU, TAMM41 / Fold change vs veh, TAMM41 / RFU, KIAA1704 /// LOC100996395 / Fold change vs veh, KIAA1704 /// LOC100996395 / RFU, ING1 / Fold change vs veh, ING1 / RFU, TRMT61B / Fold change vs veh, TRMT61B / RFU, FUBP3 / Fold change vs veh, FUBP3 / RFU, TP53 / Fold change vs veh, TP53 / RFU, TNKS2 / Fold change vs veh, TNKS2 / RFU, ZFP14 / Fold change vs veh, ZFP14 / RFU, ACTR2 / Fold change vs veh, ACTR2 / RFU, PPP3R1 / Fold change vs veh, PPP3R1 / RFU, PIK3R1 / Fold change vs veh, PIK3R1 / RFU, HNRNPA1 / Fold change vs veh, HNRNPA1 / RFU, RNF170 / Fold change vs veh, RNF170 / RFU, ZNF28 / Fold change vs veh, ZNF28 / RFU, RNGTT / Fold change vs veh, RNGTT / RFU, OGT / Fold change vs veh, OGT / RFU, BRD1 / Fold change vs veh, BRD1 / RFU, MARS / Fold change vs veh, MARS / RFU, ZNF655 / Fold change vs veh, ZNF655 / RFU, FAHD1 / Fold change vs veh, FAHD1 / RFU, BDP1 / Fold change vs veh, BDP1 / RFU, LRRCC1 / Fold change vs veh, LRRCC1 / RFU, ARID1A / Fold change vs veh, ARID1A / RFU, ZNF146 / Fold change vs veh, ZNF146 / RFU, ZNF330 / Fold change vs veh, ZNF330 / RFU, GPN3 / Fold change vs veh, GPN3 / RFU, C9orf123 / Fold change vs veh, C9orf123 / RFU, N4BP2L2 / Fold change vs veh, N4BP2L2 / RFU, ARFIP1 / Fold change vs veh, ARFIP1 / RFU, FAM179B / Fold change vs veh, FAM179B / RFU, BCL10 / Fold change vs veh, BCL10 / RFU, UHRF1BP1L / Fold change vs veh, UHRF1BP1L / RFU, BET1 / Fold change vs veh, BET1 / RFU, CNOT2 / Fold change vs veh, CNOT2 / RFU, ZNF268 / Fold change vs veh, ZNF268 / Fold change vs veh, ZNF507 / RFU, DGCR2 / Fold change vs veh, DGCR2 / RFU, WDSUB1 / Fold change vs veh, WDSUB1 / Fold change vs veh, HSP90B1 /// MIR3652 / RFU, ADSS / Fold change vs veh, ADSS / RFU, GK / Fold change vs veh, GK / RFU, ZNF148 / Fold change vs veh, ZNF148 / RFU, TAF9 / Fold change vs veh, TAF9 / RFU, SLC1A5 / Fold change vs veh, SLC1A5 / RFU, SLMO2 / Fold change vs veh, SLMO2 / RFU, ABCC4 / Fold change vs veh, ABCC4 / RFU, LOC101060439 /// RAP1B / Fold change vs veh, LOC101060439 /// RAP1B / RFU, RFX7 / Fold change vs veh, RFX7 / RFU, GTPBP10 / Fold change vs veh, GTPBP10 / RFU, CNEP1R1 / Fold change vs veh, CNEP1R1 / RFU, BIVM-ERCC5 /// ERCC5 / Fold change vs veh, BIVM-ERCC5 /// ERCC5 / RFU, ILF3 / Fold change vs veh, ILF3 / RFU 11762660_at / Fold change /veh 11762660_at / RFU VCAN (11757783_s_at) / Fold change /veh VCAN (11757783_s_at) / RFU DDX43 (11728927_at) / Fold change /veh DDX43 (11728927_at) / RFU KRT8 (11758188_x_at) / Fold change /veh KRT8 (11758188_x_at) / RFU NKD1 (11759106_at) / Fold change /veh NKD1 (11759106_at) / RFU SRD5A1 (11742802_a_at) / Fold change /veh SRD5A1 (11742802_a_at) / RFU TPSAB1 /// TPSB2 (11721975_s_at) / Fold change /veh TPSAB1 /// TPSB2 (11721975_s_at) / RFU GSTM3 (11746129_a_at) / Fold change /veh GSTM3 (11746129_a_at) / RFU IL23R (11737362_x_at) / Fold change /veh IL23R (11737362_x_at) / RFU TMEM51 (11727254_a_at) / Fold change /veh TMEM51 (11727254_a_at) / RFU PIWIL2 (11732686_x_at) / Fold change /veh PIWIL2 (11732686_x_at) / RFU ORM1 (11744905_x_at) / Fold change /veh ORM1 (11744905_x_at) / RFU CCDC152 (11743942_at) / Fold change /veh CCDC152 (11743942_at) / RFU ECM1 (11717891_a_at) / Fold change /veh ECM1 (11717891_a_at) / RFU IL23R (11748794_a_at) / Fold change /veh IL23R (11748794_a_at) / RFU TNFAIP8L3 (11732012_x_at) / Fold change /veh TNFAIP8L3 (11732012_x_at) / RFU MBOAT4 (11741988_at) / Fold change /veh MBOAT4 (11741988_at) / RFU 11764193_at / Fold change /veh 11764193_at / RFU TMEM53 (11763286_at) / Fold change /veh TMEM53 (11763286_at) / RFU MAGEB2 (11727129_at) / Fold change /veh MAGEB2 (11727129_at) / RFU TMEM200A (11744735_a_at) / Fold change /veh TMEM200A (11744735_a_at) / RFU CCDC152 (11751479_a_at) / Fold change /veh CCDC152 (11751479_a_at) / RFU FAM211A (11726209_a_at) / Fold change /veh FAM211A (11726209_a_at) / RFU RGS16 (11746705_a_at) / Fold change /veh RGS16 (11746705_a_at) / RFU VCAN (11755009_s_at) / Fold change /veh VCAN (11755009_s_at) / RFU RHOB (11743442_s_at) / Fold change /veh RHOB (11743442_s_at) / RFU RGS16 (11720943_a_at) / Fold change /veh RGS16 (11720943_a_at) / RFU RGS16 (11720944_at) / Fold change /veh RGS16 (11720944_at) / RFU, VPS4B / Fold change vs veh, VPS4B / RFU, CREB1 / Fold change vs veh, CREB1 / RFU, DNAJC13 / Fold change vs veh, DNAJC13 / RFU, GNAQ / Fold change vs veh, GNAQ / RFU, CDK5R1 / Fold change vs veh, CDK5R1 / RFU, ZRANB3 / Fold change vs veh, ZRANB3 / RFU, CUL4A / Fold change vs veh, CUL4A / RFU, CCNY / Fold change vs veh, CCNY / RFU, UFL1 / Fold change vs veh, UFL1 / RFU, COG3 / Fold change vs veh, COG3 / RFU, DIAPH2 / Fold change vs veh, DIAPH2 / RFU, SKA2 / Fold change vs veh, SKA2 / RFU, AFF3 / Fold change vs veh, AFF3 / RFU, LMF1 / Fold change vs veh, LMF1 / RFU, IPO11 / Fold change vs veh, IPO11 / RFU, DFFB / Fold change vs veh, DFFB / RFU, FOXP1 / Fold change vs veh, FOXP1 / RFU, CARD8 / Fold change vs veh, CARD8 / RFU, STRN3 / Fold change vs veh, STRN3 / RFU, ADK / Fold change vs veh, ADK / RFU, RASSF2 / Fold change vs veh, RASSF2 / RFU, WIPF1 / Fold change vs veh, WIPF1 / RFU, LARP1B / Fold change vs veh, LARP1B / RFU, RASA1 / Fold change vs veh, RASA1 / RFU, RB1 / Fold change vs veh, RB1 / RFU, PPFIA1 / Fold change vs veh, PPFIA1 / RFU, MAT2A / Fold change vs veh, MAT2A / RFU, CCT5 / Fold change vs veh, CCT5 / RFU, WDR92 / Fold change vs veh, WDR92 / RFU, CUX1 / Fold change vs veh, CUX1 / RFU, TTC7A / Fold change vs veh, TTC7A / RFU, TMEM135 / Fold change vs veh, TMEM135 / RFU, DEPTOR / Fold change vs veh, DEPTOR / RFU, CPM / Fold change vs veh, CPM / RFU, DNAJB6 / Fold change vs veh, DNAJB6 / RFU, CACNA2D3 / Fold change vs veh, CACNA2D3 / RFU, DTX4 / Fold change vs veh, DTX4 / RFU, TFCP2 / Fold change vs veh, TFCP2 / RFU, GMCL1 /// GMCL1P1 / Fold change vs veh, GMCL1 /// GMCL1P1 / RFU, AEBP2 / Fold change vs veh, AEBP2 / RFU, SNHG1 /// SNORD22 /// SNORD25 /// SNORD26 /// SNORD27 /// SNORD28 /// SNORD29 /// SNORD31 / Fold change vs veh, SNHG1 /// SNORD22 /// SNORD25 /// SNORD26 /// SNORD27 /// SNORD28 /// SNORD29 /// SNORD31 / Fold change (Aza/veh), C12orf56 (ProbeSet 11735607_a_at) / Fold change (ACY-1035/veh), C12orf56 (ProbeSet 11735607_a_at) / Fold change (Aza/veh), FGFR1OP (ProbeSet 11751329_s_at) / Fold change (ACY-1035/veh), FGFR1OP (ProbeSet 11751329_s_at) / Fold change (Aza/veh), VPS36 (ProbeSet 11739960_a_at) / Fold change (ACY-1035/veh), VPS36 (ProbeSet 11739960_a_at) / RFU SYPL1 (11715823_x_at) / Fold change /veh SYPL1 (11715823_x_at) / RFU IGFBP7 (11715501_s_at) / Fold change /veh IGFBP7 (11715501_s_at) / RFU REEP3 (11722064_at) / Fold change /veh REEP3 (11722064_at) / RFU IGLL1 (11728026_x_at) / Fold change /veh IGLL1 (11728026_x_at): dose or concentration left out as unconfirmed
Conditions: MV-4-11 cells, 48 hours

Structure (SMILES): Nc1ncn([C@@H]2O[C@H](CO)[C@@H](O)[C@H]2O)c(=O)n1 [azacitidine]
- RFU OR4N2 (11742367_at): 68.76 RFU
